Laboratory results from PMC9821162 (International Journal of Molecular Sciences, 2023).
Read-outs that look alike come from different tables or passages of the source.

Tests used:
MET = conditions: cited from earlier work
HGF mRNA [1] = assay: Real-time PCR of HGF mRNA in MDA-MB-231 cells; type: cell-based, human; conditions: in vitro
Experimental: (§1) In vitro, MDA-MB-231 cells were prepared as described above. […] Tumors were obtained from three mice per group at 0, 3, 6, 9, and 12 days. The total RNA was extracted using an RNA isolation kit (Takara, Shiga, Japan) according to the manufacturer’s instructions. cDNA was synthesized from 2 μg of RNA using a reverse transcriptase M-MLV synthesis kit (Takara). Real-time PCR was performed using the MyiQ5 real-time PCR detection system (Bio-Rad) with SYBR Premix Ex Taq (Takara). The PCR products for human β-actin, […], and HGF were synthesized with the primer pairs FP (forward primer) 5′-[…]-3′ and RP (reverse primer) 5′-[…]-3′ (β-actin, Gene ID: 60), FP 5′-[…]-3′ and RP 5′-[…]-3′ (MET, Gene ID: 4233), as well as FP 5′-[…]-3′ and RP 5′-[…]-3′ (HGF, Gene ID: 3082). All primers were purchased from AuGCT DNA-SYN Biotechnology Co., Ltd. (Dalian, China). Samples were run in triplicate under the following conditions: an initial denaturation for 30 s at 95 °C, followed by 45 cycles of 15 s at 95 °C, 30 s at 60 °C, and 33 s at 72 °C. The levels of gene expression in each sample were normalized to β-actin mRNA.

p-MET [2] = assay: Immunohistochemical staining (IOD) of p-MET in tumor tissue; type: in vivo, nude mice (MDA-MB-231 human breast cancer xenograft); conditions: 15 and 50 mg/kg for 18 days
[3] = Pharmacokinetic study in tumor-bearing nude mice (LC-MS/MS); type: in vivo; conditions: plasma; for AUC(0-inf) / AUC(0-t) / Cmax / Tmax / half-life / MRT: nude, mouse; for MRT: read-out: MRT (mean resident time)
Experimental: Data processing was performed with Phoenix WinNonlin 8.1.0.3530 (Pharsight Corporation, Mountain View, CA, USA).

HGF mRNA [4] = assay: Real-time PCR of HGF mRNA in MDA-MB-231 xenograft tumors; type: in vivo, nude mice (MDA-MB-231 human breast cancer xenograft); set-up: dose or concentration left out as unconfirmed; conditions: tumors at 0, 3, 6, 9, 12 days
Experimental: as §1

MET mRNA [5] = assay: Real-time PCR of MET mRNA in MDA-MB-231 cells; type: cell-based, human; conditions: in vitro
Experimental: as §1

MDA-MB-231 cells = conditions: in vitro, cited from earlier work
p-MET [6] = conditions: cited from earlier work
HGF = assay: Immunohistochemical staining (IOD) of HGF in tumor tissue; type: in vivo, nude mice (MDA-MB-231 human breast cancer xenograft); conditions: 15 and 50 mg/kg for 18 days
Experimental: After the paraffin sections of tumors were deparaffinized, rehydrated, and washed with PBS (pH 7.4), antigen retrieval was performed by boiling the sections in 10 mmol/L sodium citrate buffer (pH 6.0) in the microwave for 4 min. The endogenous peroxidase activity was quenched by placing the slides in 3% hydrogen peroxide in methanol. The slides were then blocked with 3% BSA-PBS, followed by incubation with a 1:425 dilution of the primary antibody of p-MET and HGF (Cell Signaling Technology, Danvers, MA, USA) overnight at 4 °C. Thereafter, the detection was performed using a biotin-conjugated secondary antibody and a streptavidin-horseradish peroxidase conjugate (SA-HRP), followed by colorimetric detection using diaminobenzidine (DAB). The sections were counterstained with hematoxylin and stabilized with a mounting medium. The immunohistochemical images with integrated optical density (IOD) of positive expression, which reflected the distribution characteristics of anti-p-MET and anti-HGF positive stained area in tumor tissues, were quantitatively analyzed using Image-Pro Plus version 6.0 (Media Cybernetics, Inc., Silver Spring, MD, USA).

[7] = system: MDA-MB-231 xenograft tumors; assay: Tumor growth inhibition assay, MDA-MB-231 tumor xenograft model; type: in vivo, BALB/c nude mice; conditions: for tumor inhibitory rate: day 18, n = 6; for mean tumor volume: day 18, vehicle group 285.00 ± 30.82 mm^3
Experimental: MDA-MB-231 cells (2 × 10^7) were suspended in 200 μL of PBS (pH 7.4) and were inoculated subcutaneously into the second mammary fat pads of the nude mice. The tumor diameter was measured with a vernier caliper and converted into tumor volume using the formula 1/2 × A × B^2 (A = larger diameter, B = smaller diameter). The treatment was started when the average tumor volume reached 50 mm^3.
Xenograft mice were randomly divided into three groups, with six in each group. […] The blank control group received only the vehicle solution. The tumor size and body weight were measured every three days. After 18 days of treatment, the animals were euthanized by cervical displacement. The tumors were collected after the final treatment and frozen at −80 °C until use.

MET mRNA [8] = system: MET mRNA; set-up: species or system nude mice (MDA-MB-231 human breast cancer xenograft); conditions: in vivo

Question: With `COc1cc2c(Oc3ccc(NC(=O)C4(C(=O)Nc5ccc(F)cc5)CC4)cc3F)ccnc2cc1OCCCN1CCOCC1` [Foretinib] as the molecule, how does the “expression of MET in MDA-MB-231” value (MET) read?
Answer: remained unchanged

Question: What about the “mRNA expression level of HGF” value (HGF mRNA [1]) of the same molecule?
Answer: effectively suppressed

Question: What about the “p-MET expression in the tumor tissues (IHC staining, IOD)” value (p-MET [2]) of the same molecule?
Answer: decreased in a dose-dependent manner

Question: What about the AUC(0-inf) ([3]; single oral dose 2 mg/kg) of the same molecule?
Answer: 407 ± 63.4 ng·h/mL

Question: What about the AUC(0-t) ([3]; single oral dose 2 mg/kg) of the same molecule?
Answer: 366 ± 76.4 ng·h/mL

Question: And the Cmax ([3]; single oral dose 2 mg/kg)?
Answer: 22.2 ± 11.2 ng/mL

Question: What about the Tmax ([3]; single oral dose 2 mg/kg) of the same molecule?
Answer: 4 h

Question: And the half-life ([3]; single oral dose 2 mg/kg)?
Answer: 15.1 ± 2.49 h

Question: What about the MRT ([3]; single oral dose 2 mg/kg) of the same molecule?
Answer: 20.1 ± 5.05 h

Question: What about the AUC(0-inf) ([3]; single oral dose 10 mg/kg) of the same molecule?
Answer: 7260 ± 108 ng·h/mL

Question: And the AUC(0-t) ([3]; single oral dose 10 mg/kg)?
Answer: 6210 ± 423 ng·h/mL

Question: And the Cmax ([3]; single oral dose 10 mg/kg)?
Answer: 334 ± 107 ng/mL

Question: And the Tmax ([3]; single oral dose 10 mg/kg)?
Answer: 2 h

Question: And the half-life ([3]; single oral dose 10 mg/kg)?
Answer: 19.9 ± 6.72 h

Question: And the MRT ([3]; single oral dose 10 mg/kg)?
Answer: 25.1 ± 8.36 h

Question: What about the AUC(0-inf) ([3]; single oral dose 50 mg/kg) of the same molecule?
Answer: 13000 ng·h/mL

Question: What about the AUC(0-t) ([3]; single oral dose 50 mg/kg) of the same molecule?
Answer: 12600 ng·h/mL

Question: What about the Cmax ([3]; single oral dose 50 mg/kg) of the same molecule?
Answer: 1430 ± 744 ng/mL

Question: And the Tmax ([3]; single oral dose 50 mg/kg)?
Answer: 0.5 h

Question: And the half-life ([3]; single oral dose 50 mg/kg)?
Answer: 9.48 ± 0.045 h

Question: And the MRT ([3]; single oral dose 50 mg/kg)?
Answer: 13.3 ± 0.73 h

Question: What about the “Vd (volume of distribution)” value ([3]; single oral dose 2 mg/kg) of the same molecule?
Answer: 109.72 ± 34.73 L/kg

Question: What about the “k (elimination constant)” value ([3]; single oral dose 2 mg/kg) of the same molecule?
Answer: 0.046 ± 0.008 h⁻¹

Question: What about the “Vd (volume of distribution)” value ([3]; single oral dose 10 mg/kg) of the same molecule?
Answer: 39.76 ± 13.95 L/kg

Question: And the “k (elimination constant)” value ([3]; single oral dose 10 mg/kg)?
Answer: 0.037 ± 0.012 h⁻¹

Question: What about the “Vd (volume of distribution)” value ([3]; single oral dose 50 mg/kg) of the same molecule?
Answer: 60.90 ± 31.53 L/kg

Question: And the “k (elimination constant)” value ([3]; single oral dose 50 mg/kg)?
Answer: 0.073 ± 0.0003 h⁻¹

Question: What about the “mRNA expression level of HGF” value (HGF mRNA [4]) of the same molecule?
Answer: effectively suppressed

Question: What about the “mRNA expression level of MET” value (MET mRNA [5]) of the same molecule?
Answer: effectively suppressed

Question: And the apoptosis (MDA-MB-231 cells; MDA-MB-231 cells)?
Answer: induce marked apoptosis

Question: And the cell cycle arrest (MDA-MB-231 cells; MDA-MB-231 cells)?
Answer: arrest cancer cells mainly in the G2/M phase

Question: And the “cell viability of MDA-MB-231” value (MDA-MB-231 cells)?
Answer: can decrease the cell viability

Question: What about the “expression of p-MET in MDA-MB-231” value (p-MET [6]) of the same molecule?
Answer: remarkably inhibit

Question: What about the “HGF expression in the tumor tissues (IHC staining, IOD)” value (HGF) of the same molecule?
Answer: decreased in a dose-dependent manner

Question: And the tumor inhibitory rate ([7]; 15 mg/kg/day intragastric)?
Answer: 42.79 ± 8.52%

Question: What about the tumor inhibitory rate ([7]; 50 mg/kg/day intragastric) of the same molecule?
Answer: 79.16 ± 4.58%

Question: And the mean tumor volume ([7]; high dose group (50 mg/kg/day))?
Answer: 80.67 ± 17.00 mm^3

Question: What about the mean tumor volume ([7]; low dose group (15 mg/kg/day)) of the same molecule?
Answer: 220.00 ± 70.14 mm^3

Question: And the “mRNA expression level of MET” value (MET mRNA [8])?
Answer: effectively suppressed
